According to ChEMBL document CHEMBL1201862, “PubChem BioAssay data set” (2004):
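Growth conditions: 96-well plates. Treatment: test compound, 48 hours, 5 concentrations. Analysis: linear interpolation between bracketing concentrations; unreached endpoints set to highest concentration. The concentration for 50% growth inhibition is given as GI50.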 Active and inactive are the calls of the source. Rule as the data show it: active = GI50 up to about 1.1 µM and inactive = higher.

Tests used:
Assay in all cases: NCI tumour cell line growth inhibition, 48 h
LOX IMVI = test system: LOX IMVI
NCI-H226 = test system: NCI-H226
LXFL 529 = test system: LXFL 529
OVCAR-8 = test system: OVCAR-8
HCT-116 = test system: HCT-116
NCI-H522 = test system: NCI-H522
DLD-1 = test system: DLD-1
M14 = test system: M14
K562 = test system: K562
HCT-15 = test system: HCT-15
SNB-19 = test system: SNB-19
A498 = test system: A498
HOP-18 = test system: HOP-18
HL-60 = test system: HL-60
SR = test system: SR
TK-10 = test system: TK-10
UO-31 = test system: UO-31
IGROV-1 = test system: IGROV-1
ACHN = test system: ACHN
DMS-114 = test system: DMS-114
CAKI-1 = test system: CAKI-1
SK-MEL-5 = test system: SK-MEL-5
CCRF-CEM = test system: CCRF-CEM
COLO 205 = test system: COLO 205
SNB-78 = test system: SNB-78
UACC-62 = test system: UACC-62
RPMI-8226 = test system: RPMI-8226
KM-20L2 = test system: KM-20L2
M19-MEL = test system: M19-MEL
Malme-3M = test system: Malme-3M
SK-OV-3 = test system: SK-OV-3
DMS-273 = test system: DMS-273
UACC-257 = test system: UACC-257
786-0 = test system: 786-0
U-251 = test system: U-251
KM12 = test system: KM12
SK-MEL-28 = test system: SK-MEL-28
SN12C = test system: SN12C
NCI-H23 = test system: NCI-H23
OVCAR-4 = test system: OVCAR-4
A549 = test system: A549
HCC 2998 = test system: HCC 2998
SF-539 = test system: SF-539
OVCAR-5 = test system: OVCAR-5
EKVX = test system: EKVX
SNB-75 = test system: SNB-75
SF-268 = test system: SF-268
MOLT-4 = test system: MOLT-4
HOP-62 = test system: HOP-62
HOP-92 = test system: HOP-92
SF-295 = test system: SF-295
NCI-H460 = test system: NCI-H460
SW-620 = test system: SW-620
RXF 393 = test system: RXF 393
SK-MEL-2 = test system: SK-MEL-2
HT-29 = test system: HT-29
XF498 = test system: XF498
OVCAR-3 = test system: OVCAR-3

With NC(CCC(=O)NC(CSC(=O)N(O)c1ccc(Br)cc1)C(=O)NCC(=O)O)C(=O)O (configuration not stated) the GI50 (LOX IMVI) was 61.5 µM (inactive), the GI50 (NCI-H226) was > 100 µM (inactive) and the GI50 (LXFL 529) was 46.9 µM (inactive). For the same compound, the GI50 (OVCAR-8) was > 100 µM (inactive), the GI50 (HCT-116) was 88.5 µM (inactive) and the GI50 (NCI-H522) was > 100 µM (inactive). For the same compound, the GI50 (DLD-1) was 86.5 µM (inactive), the GI50 (M14) was 30 µM (inactive) and the GI50 (K562) was 76.2 µM (inactive). For the same compound, the GI50 (HCT-15) was 77.6 µM, the GI50 (SNB-19) was > 100 µM (inactive) and the GI50 (A498) was > 100 µM (inactive). The GI50 (HOP-18) was 38.2 µM (inactive), the GI50 (HL-60) was > 100 µM (inactive) and the GI50 (SR) was 81.7 µM (inactive). The GI50 (TK-10) was > 100 µM (inactive), the GI50 (UO-31) was 90.4 µM (inactive) and the GI50 (IGROV-1) was > 100 µM (inactive). For the same compound, the GI50 (ACHN) was 25.1 µM (inactive), the GI50 (DMS-114) was > 100 µM (inactive) and the GI50 (CAKI-1) was 70.3 µM (inactive). The GI50 (SK-MEL-5) was > 100 µM (inactive), the GI50 (CCRF-CEM) was > 100 µM (inactive) and the GI50 (COLO 205) was > 100 µM (inactive). The GI50 (SNB-78) was > 100 µM (inactive), the GI50 (UACC-62) was > 100 µM (inactive) and the GI50 (RPMI-8226) was 66.4 µM (inactive). For the same compound, the GI50 (KM-20L2) was 35.2 µM (inactive), the GI50 (M19-MEL) was > 100 µM (inactive) and the GI50 (Malme-3M) was > 100 µM (inactive). The GI50 (SK-OV-3) was 29.2 µM (inactive) and the GI50 (DMS-273) was > 100 µM (inactive).
In the case of CC(C)N(C(C)C)P(OCCC#N)OC1CC(n2cnc3c(=O)[nH]cnc32)OC1COC(=O)NCCCCCCNC(=O)OC(C)(C)c1ccc(-c2ccccc2)cc1 (configuration not stated), the GI50 (LOX IMVI) is reported as 18.2 µM (inactive), the GI50 (UACC-257) is reported as 15.2 µM (inactive) and the GI50 (NCI-H226) is reported as 23.9 µM (inactive). The GI50 (786-0) was 23 µM (inactive), the GI50 (U-251) was 21.7 µM (inactive) and the GI50 (LXFL 529) was 17.5 µM (inactive). For the same compound, the GI50 (OVCAR-8) was 34.4 µM (inactive), the GI50 (KM12) was 18.7 µM (inactive) and the GI50 (SK-MEL-28) was 34.3 µM (inactive). The GI50 (SN12C) was 23.7 µM (inactive), the GI50 (HCT-116) was 39.1 µM (inactive) and the GI50 (NCI-H522) was 15.6 µM (inactive). The GI50 (DLD-1) was 43.3 µM (inactive), the GI50 (M14) was 18.4 µM (inactive) and the GI50 (K562) was 13.7 µM (inactive). The GI50 (NCI-H23) was 26.1 µM (inactive), the GI50 (HCT-15) was 22.6 µM and the GI50 (SNB-19) was 21.7 µM (inactive). For the same compound, the GI50 (OVCAR-4) was 19.7 µM (inactive), the GI50 (A549) was 39.4 µM (inactive) and the GI50 (HCC 2998) was 25.5 µM (inactive). The GI50 (A498) was > 100 µM (inactive), the GI50 (SF-539) was 24 µM (inactive) and the GI50 (OVCAR-5) was > 100 µM (inactive). For the same compound, the GI50 (HOP-18) was 92 µM (inactive), the GI50 (HL-60) was 14.7 µM (inactive) and the GI50 (EKVX) was > 100 µM (inactive). The GI50 (SNB-75) was 24.3 µM (inactive), the GI50 (TK-10) was 24.2 µM (inactive) and the GI50 (UO-31) was 17.5 µM (inactive). The GI50 (IGROV-1) was 17 µM (inactive), the GI50 (ACHN) was 38.7 µM (inactive) and the GI50 (SF-268) was 29.6 µM (inactive). For the same compound, the GI50 (DMS-114) was 21.8 µM (inactive), the GI50 (MOLT-4) was 18.7 µM (inactive) and the GI50 (HOP-62) was 23.4 µM (inactive). The GI50 (CAKI-1) was 39.4 µM (inactive), the GI50 (HOP-92) was 35.9 µM (inactive) and the GI50 (SK-MEL-5) was 24.8 µM (inactive). The GI50 (CCRF-CEM) was 18.5 µM (inactive), the GI50 (COLO 205) was 17.4 µM (inactive) and the GI50 (SF-295) was 52.1 µM (inactive). For the same compound, the GI50 (SNB-78) was 30.5 µM (inactive), the GI50 (NCI-H460) was 22.9 µM (inactive) and the GI50 (SW-620) was 34.1 µM (inactive). The GI50 (RXF 393) was 27.7 µM (inactive), the GI50 (SK-MEL-2) was 30.4 µM (inactive) and the GI50 (UACC-62) was 18.4 µM (inactive). For the same compound, the GI50 (RPMI-8226) was 25.7 µM (inactive), the GI50 (KM-20L2) was 43.2 µM (inactive) and the GI50 (M19-MEL) was 21.5 µM (inactive). For the same compound, the GI50 (Malme-3M) was 32.2 µM (inactive), the GI50 (SK-OV-3) was 39.4 µM (inactive) and the GI50 (HT-29) was 43.2 µM (inactive). The GI50 (DMS-273) was 17.4 µM (inactive).
For COc1ccc2oc(-c3ccc(OC)c(OC)c3OC)cc(=O)c2c1, the GI50 (LOX IMVI) was 46.8 µM (inactive), the GI50 (UACC-257) was 55.6 µM (inactive) and the GI50 (NCI-H226) was 10.5 µM (inactive). The GI50 (786-0) was 72.4 µM (inactive), the GI50 (LXFL 529) was 39.4 µM (inactive) and the GI50 (SK-MEL-28) was 62.2 µM (inactive). For the same compound, the GI50 (SN12C) was 53.3 µM (inactive), the GI50 (HCT-116) was 34.6 µM (inactive) and the GI50 (NCI-H522) was 18.8 µM (inactive). For the same compound, the GI50 (DLD-1) was 49.7 µM (inactive), the GI50 (M14) was 55.3 µM (inactive) and the GI50 (K562) was 40.6 µM (inactive). For the same compound, the GI50 (NCI-H23) was 43.3 µM (inactive), the GI50 (SNB-19) was 18.9 µM (inactive) and the GI50 (OVCAR-4) was 38.7 µM (inactive). For the same compound, the GI50 (A549) was 36.6 µM (inactive), the GI50 (HCC 2998) was 52.7 µM (inactive) and the GI50 (SF-539) was 31.2 µM (inactive). The GI50 (OVCAR-5) was 28.4 µM (inactive), the GI50 (HL-60) was 18.6 µM (inactive) and the GI50 (XF498) was 39.7 µM (inactive). For the same compound, the GI50 (EKVX) was 33.1 µM (inactive), the GI50 (SNB-75) was 48.3 µM (inactive) and the GI50 (TK-10) was 36.3 µM (inactive). The GI50 (IGROV-1) was 83.9 µM (inactive), the GI50 (ACHN) was 61.8 µM (inactive) and the GI50 (SF-268) was 36.4 µM (inactive). The GI50 (DMS-114) was 31.8 µM (inactive), the GI50 (HOP-62) was 70.3 µM (inactive) and the GI50 (CAKI-1) was 53 µM (inactive). For the same compound, the GI50 (HOP-92) was 50.6 µM (inactive), the GI50 (CCRF-CEM) was 35.2 µM (inactive) and the GI50 (COLO 205) was 52 µM (inactive). The GI50 (SF-295) was 51.6 µM (inactive), the GI50 (OVCAR-3) was 34.7 µM (inactive) and the GI50 (SW-620) was 65.2 µM (inactive). The GI50 (RXF 393) was 22.4 µM (inactive), the GI50 (SK-MEL-2) was 22.9 µM (inactive) and the GI50 (UACC-62) was 55.2 µM (inactive). The GI50 (RPMI-8226) was 17 µM (inactive), the GI50 (KM-20L2) was 24 µM (inactive) and the GI50 (M19-MEL) was 57 µM (inactive). For the same compound, the GI50 (Malme-3M) was 40.7 µM (inactive), the GI50 (SK-OV-3) was > 100 µM (inactive) and the GI50 (HT-29) was 48.2 µM (inactive).
